Data set [1] addresses Gamma-secretase. The data set is described as follows: Modulation of gamma-secretase (unknown origin) expressed in CHO cells overexpressing human wild type APP assessed as reduction of amyloid beta 42 level after 24 hrs by ELISA. The format is cell-based. Background: ELISA stands for enzyme-linked immunosorbent assay.
The nature of data set [2]: Bioavailability in rat at 1 mg/kg, iv and 5 mg/kg, po. The format is ADME, organism-based. As to conditions: in vivo.
The target of the next data set is Cytochrome P450 3A4 (Homo sapiens, UniProt P08684). Nature of the data set: Inhibition of CYP3A4 (unknown origin). The class given is ADME.
A further data set deals with Cytochrome P450 2C9 (Homo sapiens, UniProt P11712). The data set is described as follows: Inhibition of CYP2C9 (unknown origin). The class given is ADME.
For the next data set, the target named is T1, Cytochrome P450 2C8 (Homo sapiens, UniProt P10632).
T1 sequence (P10632 whole entry): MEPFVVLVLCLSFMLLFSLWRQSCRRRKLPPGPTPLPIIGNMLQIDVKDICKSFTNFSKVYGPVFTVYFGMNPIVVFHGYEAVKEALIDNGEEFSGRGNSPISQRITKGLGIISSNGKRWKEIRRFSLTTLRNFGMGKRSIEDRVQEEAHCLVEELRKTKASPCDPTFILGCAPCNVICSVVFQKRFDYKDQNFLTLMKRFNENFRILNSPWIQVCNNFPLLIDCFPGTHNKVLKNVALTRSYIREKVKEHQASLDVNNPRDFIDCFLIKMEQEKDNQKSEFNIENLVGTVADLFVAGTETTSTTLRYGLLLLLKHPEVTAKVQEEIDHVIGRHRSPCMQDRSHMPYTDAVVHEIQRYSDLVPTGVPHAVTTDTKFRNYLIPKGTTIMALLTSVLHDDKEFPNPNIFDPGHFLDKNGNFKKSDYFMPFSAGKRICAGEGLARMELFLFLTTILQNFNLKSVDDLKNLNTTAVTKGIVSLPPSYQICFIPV
The data set is described as follows: Inhibition of CYP2C8 (unknown origin). The format is ADME.

For a further data set, the target named is Cytochrome P450 2D6 (Homo sapiens, UniProt P10635). Nature of the data set: Inhibition of CYP2D6 (unknown origin). The format is ADME.
The target in the next data set is Cytochrome P450 2C19 (Homo sapiens, UniProt P33261). Nature of the data set: Inhibition of CYP2C19 (unknown origin). The format is ADME.
A short description of data set [3]: Fraction unbound in rat plasma. The class given is ADME, cell-free.
The nature of data set [4]: Plasma concentration in rat at 5 mg/kg, po after 1 hr. The class given is ADME, organism-based. More on the design: dose 5 mg/kg, route oral.
Data set [5] in a line: Lipophilicity, log D of the compound by shake flask method. The format is physicochemical. As to conditions: octanol/water.
Another data set has as its target T2, Cytochrome P450 1A2 (Homo sapiens, UniProt P05177).
T2 sequence (P05177 whole entry): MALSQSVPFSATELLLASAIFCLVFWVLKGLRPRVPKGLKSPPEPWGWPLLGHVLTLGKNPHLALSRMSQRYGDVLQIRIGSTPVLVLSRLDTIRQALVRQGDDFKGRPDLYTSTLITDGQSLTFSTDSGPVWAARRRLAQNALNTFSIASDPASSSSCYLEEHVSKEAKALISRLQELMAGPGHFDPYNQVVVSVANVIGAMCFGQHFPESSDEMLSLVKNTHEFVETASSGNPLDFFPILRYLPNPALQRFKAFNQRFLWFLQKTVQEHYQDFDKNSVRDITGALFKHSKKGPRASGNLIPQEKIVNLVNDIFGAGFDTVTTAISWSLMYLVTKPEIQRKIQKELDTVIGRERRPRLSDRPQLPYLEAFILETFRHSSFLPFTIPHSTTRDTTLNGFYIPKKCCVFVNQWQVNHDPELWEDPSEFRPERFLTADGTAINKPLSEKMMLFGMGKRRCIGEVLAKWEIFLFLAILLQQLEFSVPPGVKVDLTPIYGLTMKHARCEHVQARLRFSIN
Nature of the data set: Inhibition of CYP1A2 (unknown origin). The class given is ADME.

Data set [6] can be described thus: Fraction unbound in rat brain. The format is ADME, tissue-based.
The subject of data set [7] is MDR1 (human). The data set is described as follows: Efflux ratio of permeability in MDCK cells expressing human MDR1. The class given is ADME, cell-based, Canis lupus familiaris. As to conditions: dog.
Data set [8] is described as follows: Aqueous kinetic solubility of the compound at pH 6.5. Particulars: read-out: Kinetic_solubility. The class given is physicochemical.
Data set [9] in a line: Drug uptake in rat brain at 5 mg/kg, po after 1 hr. The format is ADME, organism-based. More on the design: dose 5 mg/kg, route oral. As to conditions: read-out: Drug uptake.
The nature of data set [10]: Passive apparent permeability from apical to basolateral side in RRCK cells. Particulars: dog, MDCK. The class given is ADME, cell-based, Canis lupus familiaris, MDCKII-LE.
Data set [11] can be described thus: Ratio of drug uptake in brain to plasma in rat at 5 mg/kg, po after 1 hr. The format is ADME, organism-based. Set-up: dose 5 mg/kg, route oral. As to conditions: read-out: BPR.
Data set [12] can be described thus: Half life in rat at 1 mg/kg, iv. The format is ADME, organism-based. More on the design: dose 1 mg/kg, route intravenous. Particulars: in vivo.
A short description of data set [13]: Apparent intrinsic clearance in human liver microsomes. Particulars: read-out: CLH(app). The format is ADME.
Data set [14] is described as follows: Apparent intrinsic clearance in rat liver microsomes. The class given is ADME. Particulars: read-out: CLH(app). For orientation: Liver microsomes are a subcellular fraction often used to study metabolism.
A short description of data set [15]: Ratio of unbound drug level in brain to plasma in rat. The format is ADME.
In data set [16] the test system is MDR1 (human). Nature of the data set: Permeability from apical to basolateral side in MDCK cells expressing human MDR. The class given is ADME, cell-based, Canis lupus familiaris. Particulars: dog, read-out: permeability.
A short description of data set [17]: Volume of distribution at steady state in rat at 1 mg/kg, iv. The format is ADME, organism-based. Set-up: dose 1 mg/kg, route intravenous. As to conditions: in vivo, read-out: Vdss.
A short description of data set [18]: Clearance in rat at 1 mg/kg, iv. The class given is ADME, organism-based. Set-up: dose 1 mg/kg, route intravenous. As to conditions: in vivo.
Data set [19] has as its target Gamma-secretase. Nature of the data set: Modulation of gamma secretase in HEK293 NdeltaE cells assessed as inhibition of notch signalling. The class given is cell-based, Homo sapiens.
Data set [20] in a line: Apparent intrinsic clearance in human hepatocytes. The class given is ADME, cell-based, Hepatocyte. Particulars: read-out: CLH(app).
The nature of data set [21]: Half life in human hepatocytes. The format is ADME, cell-based, Hepatocyte.

These results are taken from ChEMBL document CHEMBL3124856, “Design, synthesis, and pharmacological evaluation of a novel series of pyridopyrazine-1,6-dione γ-secretase modulators” (J Med Chem, 2014).

≈ marks a conversion by molar mass, not a printed value.

As usually defined, the IC50 is the concentration that gives 50% inhibition. By bioavailability is commonly meant dose-corrected exposure relative to a reference, in per cent. Lower therefore signals little systemic uptake. Usually fraction unbound stands for free concentration divided by total concentration. As usually defined, the logD is lipophilicity at a set pH, counting ionised and neutral species. In general, efflux ratio refers to the permeability from basolateral to apical divided by that in the opposite direction, in the common usage. The half-life is the time needed for the level to fall by half in the phase considered. A lower half-life goes with rapid decline. Usually clearance stands for a measure of how efficiently the substance is removed, as volume per time.

Cytochrome P450 3A4, sequence (P08684 whole entry): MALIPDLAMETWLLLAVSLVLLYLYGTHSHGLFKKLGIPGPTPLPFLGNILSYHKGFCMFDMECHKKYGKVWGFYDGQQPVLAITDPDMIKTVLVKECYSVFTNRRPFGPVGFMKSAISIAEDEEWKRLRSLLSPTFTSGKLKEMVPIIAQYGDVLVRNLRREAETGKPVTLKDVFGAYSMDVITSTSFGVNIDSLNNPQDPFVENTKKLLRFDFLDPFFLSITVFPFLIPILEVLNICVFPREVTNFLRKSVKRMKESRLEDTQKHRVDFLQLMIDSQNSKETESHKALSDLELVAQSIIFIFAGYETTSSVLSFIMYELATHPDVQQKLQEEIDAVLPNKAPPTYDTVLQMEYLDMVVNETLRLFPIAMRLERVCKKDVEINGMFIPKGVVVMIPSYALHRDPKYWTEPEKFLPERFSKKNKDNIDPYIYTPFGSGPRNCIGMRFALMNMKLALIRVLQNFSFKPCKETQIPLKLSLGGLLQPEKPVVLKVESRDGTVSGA
Cytochrome P450 2D6, sequence (P10635 whole entry): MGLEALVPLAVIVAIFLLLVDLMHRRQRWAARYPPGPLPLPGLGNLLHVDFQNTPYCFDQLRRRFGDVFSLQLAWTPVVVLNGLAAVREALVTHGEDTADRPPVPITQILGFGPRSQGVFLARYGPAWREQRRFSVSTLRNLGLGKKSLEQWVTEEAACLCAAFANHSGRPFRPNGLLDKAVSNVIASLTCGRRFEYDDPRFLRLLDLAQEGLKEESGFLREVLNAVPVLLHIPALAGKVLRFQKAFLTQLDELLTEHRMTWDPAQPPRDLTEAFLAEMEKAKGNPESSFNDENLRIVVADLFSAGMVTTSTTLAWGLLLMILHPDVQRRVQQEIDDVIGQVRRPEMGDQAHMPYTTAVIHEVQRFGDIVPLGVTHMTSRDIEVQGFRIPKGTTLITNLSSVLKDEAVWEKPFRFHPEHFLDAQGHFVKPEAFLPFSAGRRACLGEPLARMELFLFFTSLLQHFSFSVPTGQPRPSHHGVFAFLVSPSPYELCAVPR
Cytochrome P450 2C19, sequence (P33261 whole entry): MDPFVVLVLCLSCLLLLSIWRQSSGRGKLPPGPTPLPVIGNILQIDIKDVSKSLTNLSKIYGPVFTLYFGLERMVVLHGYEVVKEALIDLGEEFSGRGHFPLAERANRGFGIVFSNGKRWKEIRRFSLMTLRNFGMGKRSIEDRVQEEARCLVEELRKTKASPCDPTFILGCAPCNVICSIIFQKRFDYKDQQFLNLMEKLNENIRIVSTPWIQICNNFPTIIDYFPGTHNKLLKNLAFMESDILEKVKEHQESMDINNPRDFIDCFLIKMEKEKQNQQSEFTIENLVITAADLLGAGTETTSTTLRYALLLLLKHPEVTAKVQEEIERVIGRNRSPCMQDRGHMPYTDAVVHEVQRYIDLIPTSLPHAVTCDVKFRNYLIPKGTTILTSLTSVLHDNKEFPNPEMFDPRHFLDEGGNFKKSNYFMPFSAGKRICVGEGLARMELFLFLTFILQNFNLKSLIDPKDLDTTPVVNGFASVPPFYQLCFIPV
Cytochrome P450 2C9, sequence (P11712 whole entry): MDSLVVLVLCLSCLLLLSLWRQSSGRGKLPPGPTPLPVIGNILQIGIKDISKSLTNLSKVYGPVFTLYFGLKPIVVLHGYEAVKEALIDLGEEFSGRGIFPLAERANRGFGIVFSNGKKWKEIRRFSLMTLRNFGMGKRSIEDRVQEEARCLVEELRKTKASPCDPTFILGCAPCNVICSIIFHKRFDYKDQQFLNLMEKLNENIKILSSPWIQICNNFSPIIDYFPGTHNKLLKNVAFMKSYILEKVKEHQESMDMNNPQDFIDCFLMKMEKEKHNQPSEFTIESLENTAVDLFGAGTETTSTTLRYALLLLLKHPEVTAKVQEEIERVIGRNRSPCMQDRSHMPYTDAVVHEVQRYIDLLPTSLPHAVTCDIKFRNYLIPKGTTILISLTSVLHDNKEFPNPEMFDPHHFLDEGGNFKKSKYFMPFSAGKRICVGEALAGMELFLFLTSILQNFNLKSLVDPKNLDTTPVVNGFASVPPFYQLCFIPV

Consider `Cc1cn(-c2ccc3n(c2=O)CCN(CCOc2ccc(F)cc2C(F)(F)F)C3=O)cn1`, for which the half-inhibitory concentration (IC50) on Gamma-secretase [1] was 0.252 µM; on Cytochrome P450 3A4, > 30 µM; against Cytochrome P450 2C9, > 30 µM; at Cytochrome P450 2C8 it was 19 µM; at Cytochrome P450 2D6, > 30 µM; against Cytochrome P450 2C19, > 30 µM. For the same compound, the IC50 was > 30 µM on Cytochrome P450 1A2 and > 50 µM on Gamma-secretase [19]. This compound also came in with a bioavailability in [2] of 100%. The results for the fraction unbound in data set [3] and in data set [6] were 0.055 and 0.032, respectively. For the same compound, the concentration at 1 h is 964 ng/mL in [4] and 718 ng/mL in [9]. The logD in data set [5] stood at 2.75. Moreover, the efflux ratio with MDR1 (human) [7] came to 1.5. Further, in data set [8], the solubility kinetic is 177 µM (≈ 79.7 µg/mL). The results for the Papp A→B (in data set [10]; with MDR1 (human) [16]) were 17.7 ×10⁻⁶ cm/s and 13.1 ×10⁻⁶ cm/s, respectively. Besides, the Kp at 1 h in [11] is 0.74. This compound also gave a half-life in [12] of 2.09 h. Also, the CLint scaled in [13] was < 8.8 mL/min/kg; in [14], 44.1 mL/min/kg. In addition, the Kp uu in [15] amounted to 0.43. In [17], the Vd is 1.91 L/kg. In addition, in data set [18], the clearance was 14.3 mL/min/kg.
As to `Cc1cn(-c2ccc3c(c2O)CCN(Cc2cccc(C(F)(F)F)c2)C3=O)cn1`, on Gamma-secretase [1], the 50% inhibitory concentration (IC50) came out at 0.4 µM. For the same compound, the CLint scaled in [20] was 90.5 mL/min/kg; in data set [13], < 8 mL/min/kg. Further, the half-life in data set [21] came to 0.322 h. The efflux ratio in the data set on MDR1 (human) [7] was found to be 1.9. The Papp A→B in data set [10] is 10.4 ×10⁻⁶ cm/s.
